For data set [1] the following is noted: Liquid; for vapor or sublimation pressure: Ebulliometric method (Recirculating still); for mass density: 293.15 K, 101.33 kPa, Vibrating tube method.
Data set [2] can be described thus: refractive index (Na D-line) (dimensionless). Particulars: 293.15 K; 101.33 kPa; Liquid; Standard Abbe refractometry.

± gives the expanded uncertainty stated by the source.

Turning to `CCCCCCCO` [heptan-1-ol], the “vapor or sublimation pressure” value in data set [1] (449.15 K) amounted to 96.5 ± 9.7 kPa.
Regarding `O=[N+]([O-])c1ccccc1` [nitrobenzene], in data set [2], the refractive index was 1.5529 ± 0.0007. Moreover, the mass density in data set [1] is 1198.8 ± 0.2 kg/m3. Besides, the “vapor or sublimation pressure” value in data set [1] (483.15 K) is given as 96.5 ± 9.7 kPa.
Take `C=CC#N` [acrylonitrile]: the refractive index in data set [2] is 1.3909 ± 0.0007. Besides, the mass density in data set [1] is listed as 806 ± 0.2 kg/m3. Further, the “vapor or sublimation pressure” value in data set [1] (350.15 K) worked out at 96.5 ± 9.7 kPa.
Turning to `CCO` [ethanol], the refractive index in data set [2] amounted to 1.361 ± 0.0007. In addition, the mass density in data set [1] is recorded as 788.9 ± 0.2 kg/m3. In addition, the “vapor or sublimation pressure” value in data set [1] (351.15 K) is recorded as 96.5 ± 9.7 kPa.

One may read the vapor or sublimation pressure as the pressure of vapour in equilibrium with the condensed phase. For orientation: refractive index means the speed of light in vacuum divided by its phase velocity in the sample. One may read the mass density as the mass of a sample divided by its volume.

Values taken from the NIST ThermoML archive (doi:10.1021/je400214b).
